Values of other authors, collected in patent US20210000792A1, “METHODS FOR REDUCING OR PREVENTING CARDIOVASCULAR EVENTS IN PATIENTS WITH TYPE II DIABETES MELLITUS” (Janssen Pharmaceutica NV, priority 2017, published 2021).

Tested on: diabetic patients
Conditions: metformin on its own; cited from earlier work

Compound: CN(C)C(=N)N=C(N)N [metformin]
- Average improvement in the HbA1c value: 1.0-1.5%
